Test results reported in patent EP2974721A1, “A PHARMACEUTICAL COMPOSITION COMPRISING A GAS GENERATING INGREDIENT” (Nanomega Medical Corporation, priority 2014, dated 2016).

How the values were obtained:
intestinal proteases = experiment: Inhibition of proteolytic degradation of insulin in isolated proximal small intestine (duodenum); assay type: biochemical; conditions: added to insulin; duodenum freshly isolated from rats; result in words
Description: Inhibition of proteolytic degradation. Inhibiting the proteolytic degradation of insulin in the intestinal fluid and the mucosal layer is critical for increasing its oral bioavailability. The inhibiting effects of DTPA and SDS on intestinal proteases were separately studied in in vitro studies of the proximal portion of the small intestine (i.e., the duodenum) freshly isolated from rats. The various digestive enzymes secreted from the pancreas into the duodenum are well-recognized. […] Insulin is highly sensitive to trypsin and chymotrypsin, which are Ca^2+-dependent enzymes in the intestinal fluid and in the mucosal layer. One strategy for inhibiting intestinal protease activities is using complexing agents such as DTPA to remove essential metal ions (e.g., Ca^2+) from the enzyme structure at vicinity of the bioactive agent. […] Proposed molecular mechanisms of proteolytic inhibition by SDS include local conformational changes or altered charge distributions of the proteases induced by their specific binding of SDS.

Caco-2 cell monolayers = experiment: Epithelial permeability: transmission of FITC-insulin across cell monolayers (fluorescence microscopy); assay type: cell-based, human; conditions: cells co-cultured with the component; stained for Cld 4, E-cadherin, DAPI; result in words
Description: Cell images of cells bound with nano/micro bubbles.
Enhanced epithelial permeability. Drug permeation may occur across the intestinal epithelium and through either transcellular or paracellular routes. To elucidate the precise mechanisms of interactions between the bubble carrier system and epithelial cells and its subsequent transport of the drug, the effects of DTPA and SDS on epithelial permeability were individually studied using Caco-2 cell monolayers. Monolayers of Caco-2 cells derived from human colorectal adenocarcinoma are widely used in in vitro models for predicting intestinal drug permeability.

SMILES | protective effect on insulin against the intestinal proteases (intestinal proteases) | transmission of FITC-insulin (pathway) (Caco-2 cell monolayers)
O=C(O)CN(CCN(CC(=O)O)CC(=O)O)CCN(CC(=O)O)CC(=O)O [DTPA, diethylene triamine pentaacetic acid] | strong protective effect | –
CCCCCCCCCCCCOS(=O)(=O)[O-].[Na+] [SDS, sodium dodecyl sulfate] | strong protective effect | promote transmission of FITC-insulin via both of paracellular pathway and transcellular pathway
O=C(O)CN(CCN1CC(=O)OC(=O)C1)CCN1CC(=O)OC(=O)C1 [DTPA dianhydride, diethylenetriaminepentaacetic dianhydride] | – | promote transmission of FITC-insulin via paracellular pathway
